One data set relates to VEGFR2 (KDR/Fc). In words: Co-precipitation assay, VEGF binding to VEGFR2/Fc in solution. Conditions: 40 ng VEGF, 200 ng receptor/Fc; 2C3 F(ab′)2 20 μg, A4.6.1 F(ab′)2 10 and 1 μg. On the procedure: (§1) 200 ng of soluble forms of VEGFR1 (Flt-1/Fc) or VEGFR2 (KDR/Fc, R&D Systems, Minneapolis, Minn.) were added for a total volume of 50 μl and incubated for 2 hrs. The receptor/Fc constructs were precipitated using Protein A-sepharose beads and the resulting precipitate was washed 4 times with binding buffer.
(§2) Reducing sample buffer was added to the pellet and supernatant of each reaction and both were analyzed by 12% SDS-PAGE and transferred to PVDF membranes. […] The soluble receptor/Fc constructs were also detected by using peroxidase-conjugated goat anti-human Fc (Kirkegaard & Perry Laboratories, Inc.)
(§3) The receptor/Fc constructs were precipitated by incubation with Protein A sepharose beads. The precipitate was washed and resuspended in reducing sample buffer and separated by 12% SDS-PAGE and transferred to PVDF.

The next data set has as its system VEGFR1 (Flt-1/Fc). The data set can be described thus: Co-precipitation assay, VEGF binding to VEGFR1/Fc in solution. The settings on record: 40 ng VEGF, 200 ng receptor/Fc; 2C3 F(ab′)2 20 μg, A4.6.1 F(ab′)2 10 and 1 μg. How it is done: as §1, §2, §3
Data set [1] in a line: Blood clearance of radioiodinated 2C3-GUS after intravenous injection. It is filed as in vivo. Conditions: 125I-labelled, intravenous injection into mice. The text has this: 2C3-GUS was radioiodinated with ^125I to a specific activity of 5×10^6 cpm/μg.
Data set [2] can be described thus: Enzymatic activity of the GUS portion of 2C3-GUS. It is filed as biochemical. The text has this:
The 6-His GUS was pure based upon SDS-PAGE, where it ran as a single band of 75 kDa band. On gel filtration columns, the 6-His GUS runs as a tetramer of about 300 kDa.
The biological activity of each component of the 2C3-GUS conjugate was confirmed.

The target in data set [3] is T1, VEGF alone or VEGF associated with sFlk-1 (VEGF:Flk-1) (Homo sapiens, UniProt P15692).
T1 sequence (P15692 27-191 isoform P15692-4): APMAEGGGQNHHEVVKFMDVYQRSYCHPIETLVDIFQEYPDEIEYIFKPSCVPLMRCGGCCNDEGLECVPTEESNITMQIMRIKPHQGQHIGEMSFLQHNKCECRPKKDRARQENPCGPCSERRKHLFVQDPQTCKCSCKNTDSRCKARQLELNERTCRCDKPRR
The data set can be described thus: Indirect and capture ELISA for reactivity with VEGF alone or VEGF:Flk-1. It is filed as binding. On the procedure: The Flk-1/SEAP protein was produced and purified as described by Tessler et al. (1994). Basically, the extracellular domain of Flk-1 (sFlk-1) was produced in Spodoptera frugiperda (Sf9) cells and purified by immunoaffinity techniques utilizing a monoclonal anti-Flk-1 antibody (1A8). sF1k-1 was then biotinylated and bound on avidin-coated plates.
The reactivity was determined as described above for the initial screening.
A capture ELISA was also developed. In the capture ELISA, microtiter plates were coated overnight at 4° C. with 100 ng of the indicated antibody. […] Streptavidin conjugated to peroxidase (Kirkegaard & Perry Laboratories, Inc.), diluted 1:2000, was used as a second layer and developed.

Data set [4] has as its system VEGF-mediated growth of ABAE cells. In words: Endothelial cell growth assay (MTS), VEGF-mediated growth of ABAE cells. The data set is classed as cell-based, bovine. Conditions: Table 5 summary.
Procedure: Adult bovine aortic endothelial (ABAE) cells were plated into 96-well tissue culture plates at 1500 cells/well and grown in the presence of 0.5 nM human VEGF with the addition of the various sample and control antibodies. Control wells received media with or without VEGF.
After 4 days of incubation, the cells were quantified by an MTS (3-(4,5-dimethylthiazol-2-yl)-5-(3-carboxylmethoxyphenyl)-2-(4-sulfophenyl)-2H-tetrazolium, inner salt) conversion assay, where MTS conversion to a formazan is proportional to cell number and can be followed by absorbance at 490 nm (Cell Titer 96 AQueous One Solution Cell Proliferation Assay, Promega, Madison, Wis.). The assay was performed according to the manufacturer's instructions.
Cell growth was estimated by subtracting the MTS conversion in cultures to which VEGF was not added. Results were expressed as a percentage of the MTS conversion in control cultures to which only VEGF was added (Buttke et al., 1993).
A further data set has as its system VEGFR2 (KDR/Flk-1). The data set can be described thus: ELISA: VEGF binding to VEGFR2-coated wells in presence of antibody. Further details: species or system mouse.
In the next data set the test system is VEGFR2. The data set can be described thus: VEGF-induced phosphorylation of VEGFR2 in PAE/KDR cells (immunoprecipitation, western blot). Conditions: 15 min stimulation, antibodies at 100 nM (15 μg/ml). It is filed as cell-based. On the procedure:
PAE/KDR, PAE/FLT, and bEND.3 cells were grown to 80-90% confluency in 100 mm tissue dishes in media containing 5% serun. The cells were then serum starved for 24 hours in media containing 0.1% serum. After pretreatment with […] sodium orthovanadate in PBS for 30 min, the cells were incubated with 5 nM (200 ng/ml) VEGF165, 5 nM (100 ng/ml) bFGF (R&D Systems, Minneapolis, Minn.), or A673 tumor conditioned media in the presence or absence of control or test antibodies for additional 15 min.
The cells were then washed with ice-cold PBS containing 10 mM EDTA, 2 mM sodium fluoride, and 2 mM sodium orthovanadate and lysed in lysis buffer (50 mM Tris, 150 mM NaCl, 1% Nonidet P-40, 0.25% sodium deoxycholate, 0.1% CHAPS, 5 mM EDTA, 1.5 mM MgCl2, 2 mM sodium fluoride, 2 mM sodium orthovanadate, 10% glycerol and protease inhibitors (Complete Protease Inhibitor Cocktail tablets, Boehringer Mannheim)). The lysates were clarified by centrifugation and resulting supernatant used for immunoprecipitation.
The reactions using the chicken anti-FLT-1 antibody were subsequently incubated with a bridging goat anti-chicken antibody (Kirkegaard and Perry Laboratories, Inc.) for 1 h at 4° C. […]

A further data set has as its system NCI-H358 NSCLC tumors. In words: Treatment of established NCI-H358 NSCLC xenografts. The data set is classed as in vivo, nu/nu mice. How it is done:
(§4) Male nu/nu mice bearing subcutaneous NCI-H358 tumors or HT1080 fibrosarcoma 200-400 mm^3 in size were injected i.p. with test or control antibodies. The NCI-H358 bearing mice were treated with 100 μg of antibodies per injection three times a week during the first week and twice a week during the second and third week. The mice were then switched to 50 μg per injection every five days. The HT1080 bearing mice were treated with 100 μg of the indicated antibody or saline every other day throughout the duration of the study. In both studies, mice were sacrificed when their tumors reached 2500 mm^3 in size or earlier if tumors began to ulcerate.
Doses were 50-100 μg every 3-5 days. […] In addition to measuring mean tumor volume (FIG. 4), photographs of the mice from each treatment group were also taken to show the differences in tumor size and appearance at the end of the study.

In a further data set the test system is HT1080 fibrosarcoma. In words: Treatment of established HT1080 fibrosarcoma xenografts. It is filed as in vivo, nu/nu mice. Conditions: 100 μg i.p. every other day; tumors 200-250 mm^3 at start. On the procedure:
as §4

For data set [5], the system named is A673 rhabdomyosarcoma and LS174T colon adenocarcinoma tumors. The data set can be described thus: Treatment of mice with established A673 and LS174T tumors. Conditions: mouse, in vivo.
A further data set has as its system KDR. The data set can be described thus: 125I-VEGF binding to KDR expressing endothelial cells (ABAE cells). Details: species or system bovine.
In data set [6] the target is T2, denatured VEGF121 and VEGF165 (Homo sapiens, UniProt P15692).
T2 sequence (P15692 27-191 isoform P15692-4): T1 sequence (P15692 27-191 isoform P15692-4)
In words: Western blot of VEGF under reducing and non-reducing conditions. The data set is classed as binding. On the procedure:
The nitrocellulose membrane was blocked using Sea-Block PP82-41 (East Coast Biologics, Berwick, Me.), and probed with primary antibodies using a mini-blotter apparatus (Immunetics, Cambridge, Mass.). The membranes were developed after incubation with the appropriate peroxidase-conjugated secondary antibody by ECL enhanced chemiluminescence.
Western blot analyses of anti-VEGF antibodies were conducted by separating VEGF165 in the presence of 5% FCS using SDS-PAGE on a 12% gel and analyzing by a standard western blotting protocol using ECL detection. The primary antibodies were incubated with the nitrocellulose membrane using a multi-lane mini-blotter apparatus.

The subject of a further data set is VEGFR1 (FLT-1). In words: ELISA: VEGF binding to VEGFR1-coated wells in presence of antibody.
Data set [7] relates to NCI-H358 human NSCLC and HT29 human colonic adenocarcinoma xenografts. The data set can be described thus: In vivo localization in mice bearing human tumor xenografts (immunohistochemistry of tumor and organs).
Procedure: Tumors were grown subcutaneously in immunocompromised mice (NCI-H358 NSCLC in nu/nu mice and HT29 colon adenocarcinoma in SCID mice) until the tumor volume was approximately 1 cm^3. 100 μg of unlabeled antibody for studies using SCID mice, or 100 μg of biotinylated antibody for studies using nude mice, was injected intravenously via a tail vein. Twenty four hours later, the mice were anesthetized, perfused with PBS, and tumor and organs including heart, lungs, liver, kidneys, intestines and spleen were collected and snap frozen in liquid nitrogen.
The tumor and organs from each mouse were sectioned on a cryostat and stained for antibody immunohistochemically as above, with the exception that sections from the nude mice were developed using peroxidase labeled streptavidin-biotin complex (Dako, Carpinteria, Calif.) and the sections from the SCID mice were developed using two peroxidase-conjugated secondary antibodies, a goat anti-mouse IgG+IgM followed by a rabbit anti-goat IgG.
100 μg of GV39M and 3E7 or isotype-matched control IgG were injected into SCID mice bearing HT29 human colonic adenocarcinomas. Twenty-four hours later, the mice were sacrificed, exsanguinated and the tumors and tissues were removed.
In data set [8] the test system is cancer patients having progressive disease. The settings on record: clinical trials; cited from earlier work.
[9] abbreviates: 100 fold molar excess over VEGF.

Procedure for VEGFR1 (FLT-1): The extracellular domain of VEGFR1 (Flt-1/Fc, R&D Systems, Minneapolis) or VEGFR2 (sFlk-1-biotin) was coated directly on wells of a microtiter plate or captured by NeutrAvidin (Pierce, Rockford, Ill.) coated wells, respectively. VEGF at a concentration of 1 nM (40 ng/ml) was incubated in the wells in the presence or absence of 100-1000 nM (15 μg-150 μg/ml) of control or test antibodies. The wells were then incubated with 1 μg/ml of rabbit anti-VEGF antibody (A-20, Santa Cruz Biotechnology, Santa Cruz, Calif.).
The reactions were developed by the addition of peroxidase-labeled goat anti-rabbit antibody (Dako, Carpinteria, Calif.) and visualized by addition of 3,3′5,5′-tetramethylbenzidine (TMB) substrate (Kirkegaard and Perry Laboratories, Inc.). Reactions were stopped after 15 min with 1 M H3PO4 and read spectrophotometrically at 450 nM.

As to 2C3 F(ab′)2: F(ab′)2 fragment of 2C3, the “Blocking of VEGF binding to VEGFR2/Fc in solution” value in the data set on VEGFR2 (KDR/Fc) is listed as “blocked the binding of VEGF to VEGFR2/Fc”. In the data set on VEGFR1 (Flt-1/Fc), the “Blocking of VEGF binding to VEGFR1/Fc in solution” value is recorded as “not to VEGFR1/Fc”.
In the case of 2C3-GUS, in data set [1], the “t½ α” value is “about 6 hours” and the “t½ β” value was “about 25 hours”. Further, in data set [2], the “Enzymatic activity of GUS portion” value is recorded as “retained enzymatic activity”.
Regarding “2C3: anti-VEGF monoclonal antibody, IgG2a,k, raised to recombinant human VEGF; hybridoma ATCC PTA 1595; blocks VEGF binding to VEGFR2, not VEGFR1”, in data set [3], the “Predominant Reactivity” value was “VEGF”. Moreover, the “Blocks VEGF-induced proliferation” value in data set [4] is recorded as “Yes”. The “Reduction in VEGF binding to VEGFR2” value in the data set on VEGFR2 (KDR/Flk-1) (setting [9]) is given as “about 74%”; in the data set on VEGFR2 (KDR/Flk-1) (1000 fold molar excess over VEGF), “about 81%”. Besides, the “Amount VEGF bound to VEGFR2-coated wells, % of amount bound in the absence of antibody” value in the data set with VEGFR2 (KDR/Flk-1) (1000-fold molar excess of antibody over VEGF (1 nM VEGF)) is on record as about 19%. In addition, the “Blocks VEGF from binding to VEGFR2” value with VEGFR2 (KDR/Flk-1) (Table 5 summary) is given as “Yes”. Further, in the data set on VEGFR2, the “Blocking of VEGF-induced phosphorylation of VEGFR2” value is “block VEGF-induced phosphorylation of VEGFR2”. The “Mean tumor weight at the end of the study (day 116)” value in the data set on NCI-H358 NSCLC tumors (FIG. 5A, 100 μg i.p., initial treatment 500 μg i.v.) is listed as 0.054 g. In the data set with NCI-H358 NSCLC tumors (FIG. 5A, 100 μg i.p., start 480 mm^3 (2C3), 428 mm^3 (3E7)), the “Mean tumor volume after approximately 14 wk of treatment” value was 84 mm^3. For the same compound, the “Decrease in mean tumor volume” value in the data set with NCI-H358 NSCLC tumors (FIG. 5A, after approximately 14 wk) is recorded as “approximately 80%”. In addition, in the data set with NCI-H358 NSCLC tumors (tumors 300-450 mm^3 at start, 50-100 μg i.p. every 3-5 days, approximately 10 weeks), the “Mean tumor volume at the end of the study, % of the initial mean tumor volume” value is recorded as 30%. The “Effect on growth of HT1080 tumors” value in the data set on HT1080 fibrosarcoma is “arrested the growth of the tumors”. In addition, in data set [5], the “Effect on growth of established A673 and LS174T tumors” value is on record as “significantly slowed the growth”. Moreover, in the data set on KDR, the “Blocking of 125I-VEGF binding to KDR on ABAE cells” value is “blocks VEGF from binding to KDR in a concentration dependent manner”. Further, the “Reactivity with VEGF on western blot” value in data set [6] is “react with denatured VEGF121 and VEGF165”. Moreover, in the data set on VEGFR1 (FLT-1) (setting [9]), the “Amount VEGF that bound to ELISA wells, maintained” value is listed as “about 92%”. For the same compound, the “Blocks VEGF from binding to VEGFR1” value in the data set on VEGFR1 (FLT-1) (Table 5 summary) is on record as “No”. The “Tumor localization in the HT29 human tumor model” value in data set [7] (after i.v. injection) is listed as “localized strongly to the connective tissue”. Also, the “Immunohistochemical Reactivity, Tumor” value in data set [7] (as E17, 3E7 and GV39M bound tumor vascular endothelium, 2C3 bound tumor stroma) was 3+.
Take `NC(=O)c1nnn(Cc2cc(Cl)c(C(=O)c3ccc(Cl)cc3)c(Cl)c2)c1N` [CAI, carboxyamidotriazole]: in data set [8], the “Disease stabilization, share of cancer patients having progressive disease before treatment” value is 49%.

The values above are taken from patent US6676941B2 (Board of Regents, The University of Texas System, priority 1999, dated 2004).
